Assay results from patent US4271161A, “Indane-acetic acid aminoesters, their preparation and their use in therapy” (Hexachimie, priority 1978, dated 1981).

Experiments:
[1] = test system: mice; experiment: toxicity: mortality after intraperitoneal administration in mice; type: in vivo
Text: In mice, no mortality was observed after intraperitoneal administration up to doses of: […]

[2] = test system: pain reactions (abdominal writhing) induced by phenylbenzoquinone; experiment: phenylbenzoquinone-induced writhing in mice (analgesic action); type: in vivo, male mice (SPF, strain OF1); conditions: for percentage inhibition of pain reactions (abdominal writhing): phenylbenzoquinone i.p. after one hour; for ED50: Mus musculus, po, inhibition of phenylbenzoquinone writhing
Description: The products being tested are administered orally (p.o.) to batches of 12 male mice (SPF, strain OF1), weighing 19-20 g. After one hour, 0.3 ml/mouse of a 0.02% strength solution of phenylbenzoquinone is injected intraperitoneally and the number of pain reactions (abdominal writhing) is counted from the 5th to the 10th minute after the latter treatment. The table below gives the percentage inhibition of these reactions.

In the case of `CCC1Cc2ccc(C(C)C(=O)OCCN3CCN(c4cccc(C(F)(F)F)c4)CC3)cc2C1` (stereo not drawn) [2 or 5], the “dose up to which no mortality was observed” value [1] is reported as 512 mg/kg, the “percentage inhibition of pain reactions (abdominal writhing)” value (from here on “percentage inhibition of pain reactions”) ([2]; 1 mg.kg^-1 p.o.) is reported as 22% and the “percentage inhibition of pain reactions” value ([2]; 2 mg.kg^-1 p.o.) is reported as 47%. The “percentage inhibition of pain reactions” value ([2]; 4 mg.kg^-1 p.o.) was 59%, the “percentage inhibition of pain reactions” value ([2]; 8 mg.kg^-1 p.o.) was 64% and the “percentage inhibition of pain reactions” value ([2]; 16 mg.kg^-1 p.o.) was 65%. The “percentage inhibition of pain reactions” value ([2]; 32 mg.kg^-1 p.o.) was 82% and the ED50 [2] was 4 mg/kg.
For `CC(C(=O)OCCN1CCN(c2cccc(C(F)(F)F)c2)CC1)c1ccc2c(c1)CC(C(C)C)C2` (stereo not drawn) [4 or 6], the “dose up to which no mortality was observed” value [1] was 256 mg/kg, the “percentage inhibition of pain reactions” value ([2]; 8 mg.kg^-1 p.o.) was 23% and the “percentage inhibition of pain reactions” value ([2]; 16 mg.kg^-1 p.o.) was 40%. For the same compound, the “percentage inhibition of pain reactions” value ([2]; 32 mg.kg^-1 p.o.) was 67%, the “percentage inhibition of pain reactions” value ([2]; 64 mg.kg^-1 p.o.) was 75% and the “percentage inhibition of pain reactions” value ([2]; 128 mg.kg^-1 p.o.) was 75%. For the same compound, the ED50 [2] was 25 mg/kg.
